{"source": "patent US12076341B2", "about": "“Use of apoptotic compensatory proliferation signaling vesicles in tissue repair and wound healing” (Rush University Medical Center, priority 2018, dated 2024)", "format_in_all_cases": "cell-based", "key": {"[1]": {"tested_on": "Hela cells", "assay": "Proliferation assay by cell counts, adherent Hela cells treated with 16K fraction vesicles", "settings": "16K fraction of Z-VAD treated serum-starved Hela cells; cell count 24 h", "method": "Generation and Purification of ACPSVs: 7.5×10^6 cells were cultured in 150 mm^2 flasks (TPP) overnight in 25 mL of indicated media. Next day, cells were induced to undergo intrinsic apoptosis by serum-starvation, extrinsic apoptosis apoptosis by treatment with anti-Fas mAb (abcam-ab11881), or anoikis apoptosis by growing the cells detached from the surface in suspension media in Thermo Scientific Nunclon Sphera plates, in the presence or absence of Z-VAD. 24 to 48 h after induction of apoptosis, culture supernatants from serum-fed healthy (Mock) and apoptotic cells were collected and subjected to differential centrifugation. […] The proliferation-inducing effect associated with each fraction was determined by cell counts after growing recipient cells for 24 h at 37° C. in the presence of 5% CO2, using a hemocytometer after trypsin digestion.\nProliferation Assay. […] The next day at the time of treatment with vesicles, the initial cell number per well (0 h) was determined by trypsin digestion and cell counts using a hemocytometer. […] Proliferation rates were determined blindly by cell counts determination using a hemocytometer."}, "[2]": {"tested_on": "Hela cells", "assay": "IF time-lapse videomicroscopy of transfected Hela cells (apoptosis, vesicle formation, compensatory proliferation signaling)", "settings": "cells pre-treated with Z-VAD prior to transfection"}, "[3]": {"tested_on": "Hela cells", "assay": "Vesicle production in 16K fraction of serum-starved Hela cells (Crkl Western blot, lipid content)", "settings": "Z-VAD pretreatment; Crkl level and lipid content of 16K fraction", "method": "(§1) (FIG. 2A) Hela cells either received 10% serum (Mock) or were induced to undergo apoptosis by serum-starvation in the presence or absence of Z-VAD. 24 h after serum starvation, apoptotic cell death was assessed by flow cytometry and the tabulated results from 3 independent experiments are shown in (FIG. 2B). (*** p<0.001, One-way ANOVA). (FIGS. 2C-21) Supernatants from the indicated cultures were fractionated by differential centrifugation and evaluated for their Crkl-containing microvesicles (ACPSVs) and CPS. (FIG. 2C) ACPSVs in the 16K fraction of apoptotic cells were visualized by DIC. (FIG. 2D) Vesicle size distribution was determined and plotted (Mean size±S.D.=1.76±1.04 μm, n=822). […] (FIG. 2H) The lipid contents of the vesicles in the 16K fractions of the indicated cultures were measured and the tabulated data from 3 experiments are shown. […] (FIG. 2I) Hela cells were treated with 16K fractions of serum-fed healthy (Mock), serum-starved apoptotic (Apop.), or Z-VAD treated serum-starved (Apop.+Z-VAD) and the proliferation levels were determined by cell count 24 h after treatment. […] 24 h after serum starvation, cells were fixed and analyzed by SEM. […] Five hours after vesicle addition, the fractions of mitotic cells, with no vesicle (NV); with ACPSV only (+AC); with apoptotic body only (+AB); or with a combination of vesicles (+Mix) were assessed by SEM. […]"}, "[4]": {"tested_on": "human epithelial keratinocytes (HEK)", "assay": "Anoikis apoptosis, vesicle formation and CPS of HEK cells grown in suspension media", "settings": "60 μm Z-VAD", "method": "HEK primary cells also product Crkl-containing vesicles which mediate CPS in other cells. (FIG. 8A) HEK cells were cultured either seeded (Mock) or induced to undergo anoikis apoptosis by culturing them in suspension media in the presence or absence of Z-VAD. (FIGS. 8A-8B) Supernatants from the indicated cultures were fractionated, as in FIG. 2, and their 16K fractions were evaluated for ACPSV production by Western blotting, using Crkl as a marker for vesicles, whose expression from 3 experiments was evaluated by densitometer and plotted below (FIG. 8A) or by lipid content measurements from 3 experiments in FIG. 8B. (n=3, * p≤ 0.05, ** p≤ 0.01, *** p≤ 0.001, one-way ANOVA). (FIG. 8C) ACPSVs in 16K fraction of apoptotic HEK cells were visualized by DIC. Similar to HeLa and B16 cells, vesicles from apoptotic HEK cells were globular and ranged between 1-1.8 micron in diameter. (FIG. 8D) HEK cells were treated with vesicles (16K fractions) harvested from HEK seeded healthy (Mock) cultures, or HEK grown in suspension media (Apop.), or HEK grown in suspension media in the presence of Z-VAD (Apop.+Z-VAD). 24 h after treatment, the proliferation levels were determined by cell counts and the tabulated data from 3 independent experiments were shown as the Mean±S.D. (** p<0.01, *** p≤ 0.001, one-way ANOVA). […]"}, "[5]": {"tested_on": "Hela cells", "assay": "Apoptotic cell death of serum-starved Hela cells by flow cytometry", "settings": "Z-VAD pretreatment; 24 h serum starvation", "method": "as §1"}}, "note": "“Also recorded” adds a separate entry of the source. Where a SMILES comes first, the peptide text is derived from it. The star is where a group is joined. Cbz = O=C(OCc1ccccc1)*; CH2F = FC*"}
{"molecule": "CC(NC(=O)C(NC(=O)OCc1ccccc1)C(C)C)C(=O)NC(CC(=O)O)C(=O)CF", "note": "(stereo not drawn) [Z-VAD] (Cbz-Val-Ala-Asp-CH2F; configuration not given here)", "values": [{"measurement": "CPS in recipient cells", "setting": "[1]", "value": "abrogated"}, {"measurement": "ACPSV formation and release from Crkl-GFP transfected Hela cells", "setting": "[2]", "value": "inhibits apoptosis and vesicle formation; also recorded: not formed or released"}, {"measurement": "vesicle production in serum-starved cells", "setting": "[3]", "value": "significantly reduced"}, {"measurement": "apoptosis in HEK cells grown in suspension media", "setting": "[4]", "value": "significantly reduced"}, {"measurement": "vesicle formation and CPS in HEK cells grown in suspension media", "setting": "[4]", "value": "prevented"}, {"measurement": "apoptosis in serum-starved Hela cells", "setting": "[5]", "value": "significantly reduced"}]}
